This is an account of results in PubChem BioAssay AID1996.

≈ marks a conversion by molar mass, not a printed value. Bounds are passed on as bounds.

The conditions of the data set: buffer; pH 7.4; 200.0 µM.
One may read the kinetic solubility as solubility judged after dilution from a stock solution rather than from solid. In turn, `CCCS(=O)(=O)N1CCCC(C(=O)Oc2ccccc2Cl)C1` (stereo unspecified) showed a kinetic solubility of 45.6 µg/mL (≈ 132 µM).

Compound `O=C(Nc1cccnc1)c1ccc([N+](=O)[O-])o1` displayed a kinetic solubility of over 35 µg/mL.

In the case of `O=C(O)c1ccc[n+](Cc2ccc([N+](=O)[O-])cc2)c1.[Br-]`, the solubility (kinetic) was over 50.9 µg/mL.

Regarding `Cn1c2ccc(F)cc2c2nc3ccccc3nc21`, the kinetic solubility stood at 0.7 µg/mL (≈ 2.79 µM).

Consider `CN(C)C(=O)Oc1cccc([N+](C)(C)C)c1.[Br-]`, for which the kinetic solubility is over 45.5 µg/mL.

For `COc1ccc(NC(=O)c2cc(C)no2)cc1`, the solubility (kinetic) was over 34.8 µg/mL.

Take `CN(CC(=O)Nc1cccc([N+](=O)[O-])c1)S(=O)(=O)c1ccccc1`: the solubility (kinetic) is over 52.4 µg/mL.

`CCCNC(=O)c1cccc(Br)c1`: the kinetic solubility was over 36.3 µg/mL.

`CC(C)OP(=O)(OC(C)C)C(O)c1ccc(N(C)C)cc1` (stereo unspecified) displayed a kinetic solubility of over 47.3 µg/mL.

As for `CC(=O)c1c(O)c2ccccc2n(C(C)C)c1=O`, the kinetic solubility was 29.7 µg/mL (≈ 121 µM).

Take `Cc1ccc(Cl)cc1N1C(=O)CC(C)(C)CC1=O`: the solubility (kinetic) worked out at 15.7 µg/mL (≈ 59.1 µM).

Consider `COc1cc(C2NC(=O)NC3=C2C(=O)OC3)cc(OC)c1OC` (stereo unspecified), for which the kinetic solubility is over 48 µg/mL.

In the case of `COc1ccccc1NC(=O)c1cc(OC)c(OC)cc1[N+](=O)[O-]`, the kinetic solubility was over 49.8 µg/mL.

Turning to `COc1ccccc1-n1c(SCC(=O)O)nc2sc3c(c2c1=O)CCC3`, the kinetic solubility was 41.8 µg/mL (≈ 108 µM).

Compound `Cc1snc(SCc2ccc(F)cc2)c1C#N` had a kinetic solubility of 3 µg/mL (≈ 11.3 µM).

With `O=C1/C(=C\c2ccsc2)NC(=S)N1c1ccccc1`, the solubility (kinetic) was 4.5 µg/mL (≈ 15.7 µM).

`CC(=O)Oc1ccc(C(=O)NC(C)CCc2ccccc2)cc1` (stereo unspecified) came in with a kinetic solubility of 42.2 µg/mL (≈ 136 µM).

`COc1cccc(OCCNS(=O)(=O)c2ccccc2[N+](=O)[O-])c1` returned a kinetic solubility of 47.2 µg/mL (≈ 134 µM).

Take `CC(=O)Nc1ccc(OCC(O)Cn2nc(C)c(C)c2C)cc1` (stereo unspecified): the kinetic solubility is over 47.6 µg/mL.

In turn, `CCn1cc(CCCC(=O)NCc2ccccc2OC)c2ccccc21` yielded a solubility (kinetic) of 10.2 µg/mL (≈ 29.1 µM).

As to `Clc1ccc(-c2nsc(N3CCOCC3)n2)c(Cl)c1`, the solubility (kinetic) came out at 4 µg/mL (≈ 12.6 µM).

With `CC(=O)Nc1nc(-c2cccc3ccccc23)cs1`, the kinetic solubility was found to be 5.3 µg/mL (≈ 19.8 µM).

For `COC(=O)c1sccc1NC(=O)CSc1ccccc1N`, the kinetic solubility is 20.8 µg/mL (≈ 64.5 µM).

Consider `Cc1ccc2[nH]cc(CCNC(=O)c3ccco3)c2c1`, for which the kinetic solubility was found to be 38.1 µg/mL (≈ 142 µM).

`Cc1cc(-c2ccccc2)nc(SCc2ccc(C(=O)O)cc2)n1` displayed a solubility (kinetic) of 43.5 µg/mL (≈ 129 µM).

`O=C(NCCC1=CCCCC1)c1c(O)nc2ccccn2c1=O`: the solubility (kinetic) was determined as 8.7 µg/mL (≈ 27.8 µM).

In turn, `O=C(Nc1ccccc1)c1cc([N+](=O)[O-])ccc1Cl` came in with a solubility (kinetic) of 3.1 µg/mL (≈ 11.2 µM).

Consider `Cc1ccc(CNC(=O)CN(C)S(=O)(=O)c2ccc(F)cc2)cc1`, for which the solubility (kinetic) came to 1.8 µg/mL (≈ 5.14 µM).

Regarding `COc1ccccc1NC(=S)NC(C)C(c1cccs1)N1CCOCC1` (stereo unspecified), the kinetic solubility was over 58.7 µg/mL.

Regarding `COc1cc2c(cc1OC)C(c1ccccc1O)NCC2` (stereo unspecified), the solubility (kinetic) was found to be 37.3 µg/mL (≈ 131 µM).

The compound `Cc1cc(C)c2c(N)c(C(=O)c3ccccc3)sc2n1` displayed a kinetic solubility of under 0.3 µg/mL.

Turning to `COc1ccc(OCC(O)CNS(=O)(=O)c2ccc(C)cc2)cc1` (stereo unspecified), the solubility (kinetic) was over 52.7 µg/mL.

In the case of `CCOC(=O)CNC(=O)N1c2ccccc2Sc2ccccc21`, the solubility (kinetic) was over 49.3 µg/mL.

With `CCCCN(C)CCNC(=O)C(=O)c1c(C)[nH]c2ccccc12`, the kinetic solubility was over 47.3 µg/mL.

As to `CCCc1nc(SCC(=O)NC2CC2)c2c(C)c(C)sc2n1`, the kinetic solubility turned out to be 0.8 µg/mL (≈ 2.38 µM).

Compound `O=C(Cc1cccs1)Nc1ccccc1` had a solubility (kinetic) of over 32.6 µg/mL.

In turn, `CCCCn1nc(CC(=O)NCCN(CC)CC)c2ccccc2c1=O` displayed a solubility (kinetic) of over 53.8 µg/mL.

Compound `CC(C)(C)OC(=O)N1CCC(CNC(=O)c2ccc(F)cc2)CC1` returned a solubility (kinetic) of over 50.5 µg/mL.

In turn, `CCOC(=O)c1sc(NC(=O)c2ccccc2OCC)nc1C` returned a kinetic solubility of under 0.4 µg/mL.

Compound `O=S(=O)(NC1=NCCCCC1)c1cc(F)ccc1F` registered a kinetic solubility of over 43.2 µg/mL.

For `CC1CCCCC12NC(=O)N(CC(=O)c1ccc(Cl)s1)C2=O` (stereo unspecified), the solubility (kinetic) was found to be 8.5 µg/mL (≈ 24.9 µM).
